Measurements reported in publication doi:10.1101/2020.07.01.182642v1 (biorxiv, 2020).

Experiments:
CLK3 (R134-T484) = CLK3 (R134-T484) (Homo sapiens, UniProt P49761, A319V); conditions: binder
CLK1 (H148-I484) = CLK1 (H148-I484) (Homo sapiens, UniProt P49759); conditions: binder
ACVRL1 = ACVRL1 (Homo sapiens, UniProt P37023); conditions: binder
MYLK = MYLK (Homo sapiens, UniProt Q15746); conditions: binder
IKBKB = IKBKB (Homo sapiens, UniProt O14920); conditions: binder
BMPR1B = BMPR1B (Homo sapiens, UniProt O00238); conditions: binder
CDC42BPB = CDC42BPB (Homo sapiens, UniProt Q9Y5S2); conditions: binder
PRKG1 = PRKG1 (Homo sapiens, UniProt Q13976); conditions: binder
TGFBR2 = TGFBR2 (Homo sapiens, UniProt P37173); conditions: binder
STK3 = STK3 (Homo sapiens, UniProt Q13188); conditions: binder
SRPK2 = SRPK2 (Homo sapiens, UniProt P78362); conditions: binder
ACVR2A = ACVR2A (Homo sapiens, UniProt P27037); conditions: binder
MAP4K4 = MAP4K4 (Homo sapiens, UniProt O95819); conditions: binder
CDK4 = CDK4 (Homo sapiens, UniProt P11802); conditions: binder
NEK2 = NEK2 (Homo sapiens, UniProt P51955); conditions: binder
MAP3K5 = MAP3K5 (Homo sapiens, UniProt Q99683); conditions: binder
DAPK3 = DAPK3 (Homo sapiens, UniProt O43293); conditions: binder
SRPK1 = SRPK1 (Homo sapiens, UniProt Q96SB4); conditions: binder
MAP2K6 = MAP2K6 (Homo sapiens, UniProt P52564); conditions: binder
BMP2K = BMP2K (Homo sapiens, UniProt Q9NSY1); conditions: binder
GSK3B = GSK3B (Homo sapiens, UniProt P49841); conditions: binder
PBK = PBK (Homo sapiens, UniProt Q96KB5); conditions: binder
PRKAA2 = PRKAA2 (Homo sapiens, UniProt P54646); conditions: binder
MAPK11 = MAPK11 (Homo sapiens, UniProt Q15759); conditions: binder
VRK1 = VRK1 (Homo sapiens, UniProt Q99986); conditions: binder
PAK2 = PAK2 (Homo sapiens, UniProt Q13177); conditions: binder
RIOK2 = RIOK2 (Homo sapiens, UniProt Q9BVS4); conditions: binder
MAPK7 = MAPK7 (Homo sapiens, UniProt Q13164); conditions: binder
DCLK1 = DCLK1 (Homo sapiens, UniProt O15075); conditions: binder
CLK1 (full-length) = CLK1 (full-length) (Homo sapiens, UniProt P49759); assay: cell-based; design: species or system HEK293T

Chain of DCLK1 (O15075 whole entry): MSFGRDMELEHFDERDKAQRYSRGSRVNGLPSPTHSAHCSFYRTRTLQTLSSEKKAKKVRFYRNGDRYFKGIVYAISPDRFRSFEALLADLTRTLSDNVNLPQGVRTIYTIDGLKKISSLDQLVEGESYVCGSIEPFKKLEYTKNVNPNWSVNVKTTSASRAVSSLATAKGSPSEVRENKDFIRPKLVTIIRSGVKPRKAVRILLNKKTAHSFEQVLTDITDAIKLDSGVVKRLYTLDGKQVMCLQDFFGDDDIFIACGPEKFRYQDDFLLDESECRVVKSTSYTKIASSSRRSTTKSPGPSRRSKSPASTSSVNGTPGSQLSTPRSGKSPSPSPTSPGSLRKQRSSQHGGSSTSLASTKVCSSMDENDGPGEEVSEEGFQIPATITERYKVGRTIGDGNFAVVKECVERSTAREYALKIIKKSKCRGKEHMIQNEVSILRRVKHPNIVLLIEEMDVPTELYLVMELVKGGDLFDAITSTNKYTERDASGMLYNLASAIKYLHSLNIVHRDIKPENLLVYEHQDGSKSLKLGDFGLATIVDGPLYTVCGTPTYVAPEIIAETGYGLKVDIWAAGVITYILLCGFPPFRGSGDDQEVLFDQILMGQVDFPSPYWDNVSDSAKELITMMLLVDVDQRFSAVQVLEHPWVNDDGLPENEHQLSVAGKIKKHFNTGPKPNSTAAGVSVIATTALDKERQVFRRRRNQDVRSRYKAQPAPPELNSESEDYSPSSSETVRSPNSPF
Chain of SRPK2 (P78362 whole entry): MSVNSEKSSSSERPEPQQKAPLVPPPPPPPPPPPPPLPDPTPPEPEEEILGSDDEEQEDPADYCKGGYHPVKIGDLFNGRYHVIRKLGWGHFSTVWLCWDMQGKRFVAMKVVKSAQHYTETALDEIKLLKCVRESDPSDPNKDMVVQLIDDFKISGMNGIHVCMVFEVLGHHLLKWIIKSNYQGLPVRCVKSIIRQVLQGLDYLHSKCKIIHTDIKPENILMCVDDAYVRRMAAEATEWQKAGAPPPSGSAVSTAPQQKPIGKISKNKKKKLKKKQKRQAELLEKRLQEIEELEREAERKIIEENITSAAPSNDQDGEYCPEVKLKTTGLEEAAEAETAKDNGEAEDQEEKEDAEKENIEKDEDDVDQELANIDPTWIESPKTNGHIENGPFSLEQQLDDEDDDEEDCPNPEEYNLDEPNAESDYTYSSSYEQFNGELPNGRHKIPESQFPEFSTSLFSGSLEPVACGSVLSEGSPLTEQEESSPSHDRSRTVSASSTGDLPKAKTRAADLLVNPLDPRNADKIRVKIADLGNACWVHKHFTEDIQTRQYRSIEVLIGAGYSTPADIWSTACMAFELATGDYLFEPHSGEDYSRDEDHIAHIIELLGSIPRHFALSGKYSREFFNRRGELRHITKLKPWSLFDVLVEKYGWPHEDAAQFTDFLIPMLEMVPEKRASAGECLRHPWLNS
Chain of IKBKB (O14920 whole entry): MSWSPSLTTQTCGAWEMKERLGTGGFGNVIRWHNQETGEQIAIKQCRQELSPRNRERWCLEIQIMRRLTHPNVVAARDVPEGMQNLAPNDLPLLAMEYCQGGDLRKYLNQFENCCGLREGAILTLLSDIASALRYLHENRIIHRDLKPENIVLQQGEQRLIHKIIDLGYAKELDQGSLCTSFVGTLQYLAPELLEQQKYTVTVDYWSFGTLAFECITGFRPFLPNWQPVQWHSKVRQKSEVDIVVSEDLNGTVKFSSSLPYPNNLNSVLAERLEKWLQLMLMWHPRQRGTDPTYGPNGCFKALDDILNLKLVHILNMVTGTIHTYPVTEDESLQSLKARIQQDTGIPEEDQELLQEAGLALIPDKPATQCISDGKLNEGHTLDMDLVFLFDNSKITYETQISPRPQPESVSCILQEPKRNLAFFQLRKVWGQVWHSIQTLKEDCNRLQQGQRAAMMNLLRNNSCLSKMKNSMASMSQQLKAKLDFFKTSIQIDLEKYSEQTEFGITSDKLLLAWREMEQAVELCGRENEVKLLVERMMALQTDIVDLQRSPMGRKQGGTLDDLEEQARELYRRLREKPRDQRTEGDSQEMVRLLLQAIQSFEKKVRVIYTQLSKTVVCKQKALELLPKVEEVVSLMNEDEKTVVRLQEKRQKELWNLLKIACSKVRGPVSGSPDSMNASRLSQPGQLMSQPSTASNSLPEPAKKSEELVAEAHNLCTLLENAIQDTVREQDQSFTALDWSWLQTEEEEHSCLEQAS
Chain of MAP4K4 (O95819 whole entry): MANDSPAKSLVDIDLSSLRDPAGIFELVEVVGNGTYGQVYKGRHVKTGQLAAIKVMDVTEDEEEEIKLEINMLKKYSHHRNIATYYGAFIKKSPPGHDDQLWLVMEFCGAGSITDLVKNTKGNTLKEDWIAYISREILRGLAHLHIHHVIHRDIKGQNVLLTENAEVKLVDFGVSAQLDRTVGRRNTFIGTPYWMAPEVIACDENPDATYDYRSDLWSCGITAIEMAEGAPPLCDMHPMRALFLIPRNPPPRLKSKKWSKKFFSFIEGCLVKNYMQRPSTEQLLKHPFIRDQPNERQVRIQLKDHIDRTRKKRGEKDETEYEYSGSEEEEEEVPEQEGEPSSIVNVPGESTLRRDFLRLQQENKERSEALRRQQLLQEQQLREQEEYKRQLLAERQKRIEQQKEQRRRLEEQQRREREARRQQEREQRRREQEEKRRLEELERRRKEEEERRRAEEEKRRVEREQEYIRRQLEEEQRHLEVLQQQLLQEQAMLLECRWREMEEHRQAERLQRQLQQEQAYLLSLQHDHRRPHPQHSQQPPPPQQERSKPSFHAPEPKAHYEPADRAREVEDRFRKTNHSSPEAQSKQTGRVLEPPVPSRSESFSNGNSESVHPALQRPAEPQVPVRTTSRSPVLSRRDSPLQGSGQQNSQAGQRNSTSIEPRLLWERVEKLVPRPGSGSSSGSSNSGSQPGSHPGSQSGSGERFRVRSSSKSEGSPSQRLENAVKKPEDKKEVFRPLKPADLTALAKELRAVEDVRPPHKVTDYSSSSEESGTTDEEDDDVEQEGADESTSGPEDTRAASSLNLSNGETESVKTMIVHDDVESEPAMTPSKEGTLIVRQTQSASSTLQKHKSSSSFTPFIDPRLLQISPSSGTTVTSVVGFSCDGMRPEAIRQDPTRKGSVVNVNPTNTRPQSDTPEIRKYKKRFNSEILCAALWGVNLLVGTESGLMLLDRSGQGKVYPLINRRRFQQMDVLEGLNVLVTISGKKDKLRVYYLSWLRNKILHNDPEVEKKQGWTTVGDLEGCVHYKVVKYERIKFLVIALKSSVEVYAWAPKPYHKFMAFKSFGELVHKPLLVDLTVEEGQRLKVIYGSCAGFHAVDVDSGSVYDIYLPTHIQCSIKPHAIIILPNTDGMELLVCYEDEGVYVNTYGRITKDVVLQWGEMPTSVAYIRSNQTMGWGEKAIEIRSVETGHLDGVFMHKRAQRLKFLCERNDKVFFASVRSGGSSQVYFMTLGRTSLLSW
Chain of MAP2K6 (P52564 whole entry): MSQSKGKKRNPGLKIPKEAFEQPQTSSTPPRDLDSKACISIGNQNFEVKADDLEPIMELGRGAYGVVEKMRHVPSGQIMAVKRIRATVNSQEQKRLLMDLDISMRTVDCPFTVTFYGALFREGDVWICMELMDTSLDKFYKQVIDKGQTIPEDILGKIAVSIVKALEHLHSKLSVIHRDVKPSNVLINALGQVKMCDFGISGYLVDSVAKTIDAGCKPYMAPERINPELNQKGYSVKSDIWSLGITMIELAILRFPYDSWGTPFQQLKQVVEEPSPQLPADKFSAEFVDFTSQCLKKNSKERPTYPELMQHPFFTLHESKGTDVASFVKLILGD
Chain of BMPR1B (O00238 whole entry): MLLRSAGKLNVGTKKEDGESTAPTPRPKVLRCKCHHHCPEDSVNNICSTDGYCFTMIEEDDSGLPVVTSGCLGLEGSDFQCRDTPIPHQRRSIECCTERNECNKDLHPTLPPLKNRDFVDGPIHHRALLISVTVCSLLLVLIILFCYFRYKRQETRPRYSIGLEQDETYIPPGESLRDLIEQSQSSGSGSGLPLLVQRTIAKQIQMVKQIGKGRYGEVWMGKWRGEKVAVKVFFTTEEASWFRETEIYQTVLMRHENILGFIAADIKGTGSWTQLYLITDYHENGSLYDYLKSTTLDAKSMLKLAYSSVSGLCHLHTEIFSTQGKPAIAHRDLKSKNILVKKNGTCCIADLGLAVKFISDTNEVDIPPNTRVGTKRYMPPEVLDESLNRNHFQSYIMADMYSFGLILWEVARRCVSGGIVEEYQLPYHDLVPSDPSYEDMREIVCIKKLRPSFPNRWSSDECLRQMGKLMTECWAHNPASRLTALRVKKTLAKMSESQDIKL
Chain of CLK3 (R134-T484) (P49761 134-484 A319V): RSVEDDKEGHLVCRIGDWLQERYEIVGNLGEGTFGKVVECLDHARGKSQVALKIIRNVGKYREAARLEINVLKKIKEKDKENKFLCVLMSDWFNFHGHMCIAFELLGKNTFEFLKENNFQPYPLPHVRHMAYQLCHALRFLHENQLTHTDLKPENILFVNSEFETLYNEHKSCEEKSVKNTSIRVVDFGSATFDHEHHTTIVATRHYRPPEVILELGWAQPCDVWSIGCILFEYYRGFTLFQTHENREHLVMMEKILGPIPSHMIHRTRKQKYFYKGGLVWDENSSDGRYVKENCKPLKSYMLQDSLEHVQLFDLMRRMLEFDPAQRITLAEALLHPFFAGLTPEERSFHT
Chain of GSK3B (P49841 whole entry): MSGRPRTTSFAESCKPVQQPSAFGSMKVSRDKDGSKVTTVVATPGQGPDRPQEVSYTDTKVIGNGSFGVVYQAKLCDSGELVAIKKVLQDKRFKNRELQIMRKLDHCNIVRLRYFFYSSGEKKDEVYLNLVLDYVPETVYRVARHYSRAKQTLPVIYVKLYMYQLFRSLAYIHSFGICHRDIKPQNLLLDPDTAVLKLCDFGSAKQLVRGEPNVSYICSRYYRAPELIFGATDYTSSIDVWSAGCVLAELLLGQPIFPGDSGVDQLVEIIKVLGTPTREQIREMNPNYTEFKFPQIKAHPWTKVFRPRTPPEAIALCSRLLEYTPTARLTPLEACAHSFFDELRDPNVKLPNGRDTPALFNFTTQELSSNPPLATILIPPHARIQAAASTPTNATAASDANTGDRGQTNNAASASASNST

## Nc1nccc(-c2ccc3noc(-c4ccc(Cl)cc4)c3c2)n1 [compound 4, K00972]
CLK3 (R134-T484)
  ΔTm A319V CLK3: 0.6 °C
CLK1 (H148-I484)
  ΔTm wild type CLK1: 5.7 °C
ACVRL1
  ΔTm inhibitor 4: 1.2 °C
MYLK
  ΔTm inhibitor 4: 0.1 °C
IKBKB
  ΔTm inhibitor 4: 1.5 °C
BMPR1B
  ΔTm inhibitor 4: 0.2 °C
CDC42BPB
  ΔTm inhibitor 4: 0.2 °C
PRKG1
  ΔTm inhibitor 4: 0.5 °C
TGFBR2
  ΔTm inhibitor 4: 2.0 °C
STK3
  ΔTm inhibitor 4: 1.6 °C
SRPK2
  ΔTm inhibitor 4: 0.4 °C
ACVR2A
  ΔTm inhibitor 4: 0.3 °C
MAP4K4
  ΔTm inhibitor 4: 0.2 °C
CDK4
  ΔTm inhibitor 4: 1.5 °C
NEK2
  ΔTm inhibitor 4: 0.1 °C

## CCN1/C(=C/C(C)=O)Sc2ccc(OC)cc21 [compound 2, TG003]
MAP3K5
  ΔTm inhibitor 2: 0.4 °C
DAPK3
  ΔTm inhibitor 2: 0.9 °C
MYLK
  ΔTm inhibitor 2: -0.2 °C
SRPK1
  ΔTm inhibitor 2: 0.0 °C
IKBKB
  ΔTm inhibitor 2: 0.1 °C
MAP2K6
  ΔTm inhibitor 2: 0.0 °C
CDC42BPB
  ΔTm inhibitor 2: 0.3 °C
BMP2K
  ΔTm inhibitor 2: 0.2 °C
PRKG1
  ΔTm inhibitor 2: 1.6 °C
GSK3B
  ΔTm inhibitor 2: 1.4 °C
PBK
  ΔTm inhibitor 2: 0.5 °C
PRKAA2
  ΔTm inhibitor 2: -0.1 °C
MAPK11
  ΔTm inhibitor 2: 0.0 °C
SRPK2
  ΔTm inhibitor 2: -0.2 °C
VRK1
  ΔTm inhibitor 2: 1.1 °C
PAK2
  ΔTm inhibitor 2: -0.6 °C
MAP4K4
  ΔTm inhibitor 2: -0.1 °C
RIOK2
  ΔTm inhibitor 2: -0.2 °C
CDK4
  ΔTm inhibitor 2: -0.6 °C
NEK2
  ΔTm inhibitor 2: 0.8 °C
MAPK7
  ΔTm inhibitor 2: 0.2 °C
DCLK1
  ΔTm inhibitor 2: -0.4 °C

## CC(=O)c1cccc(-c2cnc3ccc(NCC4CC4)nn23)c1 [compound 1, K00135]
CLK3 (R134-T484)
  ΔTm A319V CLK3: 5.8 °C
CLK1 (H148-I484)
  ΔTm wild type CLK1: 7.2 °C
MAP3K5
  ΔTm inhibitor 1: 2.2 °C
DAPK3
  ΔTm inhibitor 1: 2.8 °C
ACVRL1
  ΔTm inhibitor 1: 11.1 °C
MAP2K6
  ΔTm inhibitor 1: 1.1 °C
BMPR1B
  ΔTm inhibitor 1: 11.5 °C
BMP2K
  ΔTm inhibitor 1: 10.7 °C
TGFBR2
  ΔTm inhibitor 1: 13.7 °C
GSK3B
  ΔTm inhibitor 1: 4.1 °C
STK3
  ΔTm inhibitor 1: 2.9 °C
PRKAA2
  ΔTm inhibitor 1: 1.1 °C
MAPK11
  ΔTm inhibitor 1: 0.3 °C
VRK1
  ΔTm inhibitor 1: 0.7 °C
ACVR2A
  ΔTm inhibitor 1: 4.0 °C
RIOK2
  ΔTm inhibitor 1: 0.3 °C
DCLK1
  ΔTm inhibitor 1: 0.6 °C
CLK1 (full-length)
  Ki: 229 ± 100 nM
